{"source": "patent US9932637B2", "about": "“Genetic polymorphisms associated with cardiovascular disorders and drug response, methods of detection and uses thereof” (CELERA CORPORATION, priority 2003, dated 2018)", "system": "patients with prior myocardial infarction (CARE study)", "test": "CARE: association of SNPs with pravastatin treatment in cardiovascular events prevention (logistic regression, odds ratio pravastatin vs placebo by genotype; Table 8)", "assay_type": "in vivo, human", "details": "for Prava vs. Placebo Odds Ratio, 1 Rare Alleles / Prava vs. Placebo Odds Ratio, 2 Rare Alleles / Non-fatal MI (def & prob), n/total (%) / Fatal/Non-fatal MI (def & prob), n/total (%) / Fatal CHD/Definite Non-fatal MI, n/total (%) / Total Coronary Heart Disease Events, n/total (%) / Fatal/Non-fatal Atherosclerotic CV Disease, n/total (%) / Hosp. for Cardiovascular Disease, n/total (%) / Total Cardiovascular Disease Events, n/total (%) / Prava vs. Placebo Odds Ratio, 0 Rare Alleles: All Patients; for Non-fatal MI (def & prob), n/total (%) / Fatal/Non-fatal MI (def & prob), n/total (%) / Fatal CHD/Definite Non-fatal MI, n/total (%) / Total Coronary Heart Disease Events, n/total (%) / Fatal/Non-fatal Atherosclerotic CV Disease, n/total (%) / Hosp. for Cardiovascular Disease, n/total (%) / Total Cardiovascular Disease Events, n/total (%): Prava", "text": "In order to identify genetic markers associated with acute coronary events (e.g. MI, stroke, unstable angina, congestive heart failure, etc.) or response to statin treatment for the prevention of coronary events, samples from the Cholesterol and Recurrent Events (CARE) study (a randomized multicentral double-blinded trial on secondary prevention of acute coronary events with pravastatin) (Sacks et al., 1991, Am. J. Cardiol. 68: 1436-1446) were genotyped. A well-documented myocardial infarction (MI) was one of the enrollment criteria for entry into the CARE study. Patients were enrolled in the CARE trial from 80 participating study centers. […] Patients were randomized to receive either 40 mg of pravastatin once daily or a matching placebo. The primary endpoint of the trial was death from coronary heart disease and the median duration of follow-up was 5.0 years (range, 4.0 to 6.2 years). […] Secondary endpoints of other related cardiovascular or metabolic disease events, and changes in clinical variables were also recorded in pravastatin-treated and placebo groups. All individuals included in the study had signed a written informed consent form and the study protocol was approved by the respective Institutional Review Boards (IRBs).\nFor genotyping SNPs in CARE patient samples, DNA was extracted from blood samples using conventional DNA extraction methods such as the QIA-amp kit from Qiagen. Genotypes were obtained on an ABI PRISM® 7900HT Sequence Detection PCR system (Applied Biosystems, Foster City, Calif.) by kinetic allele-specific PCR, similar to the method described by Germer et al. (Germer S., Holland M. J., Higuchi R. 2000, Genome Res. 10: 258-266).\nStatistical analysis for association of SNPs with pravastatin treatment in cardiovascular events prevention (Table 8) was carried out using an overall logistic regression model that included an intercept, a parameter for the effect of a genotype containing two rare alleles versus a genotype containing no rare alleles, a parameter for the effect of a genotype containing one rare allele versus a genotype containing no rare alleles, a parameter for the effect of use of pravastatin versus the use of placebo, and parameters for the interaction effects between SNP genotypes and pravastatin use. The test of the overall model is a chi-square test with two degrees of freedom for analyses containing all three genotypes, and one degree of freedom for analyses containing two genotypes.\nEffect sizes were estimated through odds ratios (pravastatin group versus placebo) for carriers of each genotype (groups of 0, 1, and 2 minor allele carriers). The effect was considered to be significant if p-value for testing whether any of the interactions between SNP genotypes and pravastatin use were <0.05. […] Odds ratios less than one indicate that the specific SNP allele has a protective effect and odds ratios greater than one indicate that the specific SNP allele has an adverse effect.", "key": {"[1]": {"details": "IL1A hCV9546471, Total Mortality"}, "[2]": {"details": "IL1RN hCV8737990, 2 Rare Alleles, n/total 20/121"}, "[3]": {"details": "IL1RN hCV8737990, Fatal CHD/Definite Non-fatal MI"}, "[4]": {"details": "IL1RN hCV8737990, Fatal/Non-fatal Atherosclerotic CV Disease"}, "[5]": {"details": "IL1RN hCV8737990, Fatal/Non-fatal MI (def & prob)"}, "[6]": {"details": "IL1RN hCV8737990, Hosp. for Cardiovascular Disease"}, "[7]": {"details": "IL1RN hCV8737990, Non-fatal MI (def & prob)"}, "[8]": {"details": "IL1RN hCV8737990, Total Cardiovascular Disease Events"}, "[9]": {"details": "IL1RN hCV8737990, Total Coronary Heart Disease Events"}, "[10]": {"details": "IL6ST hCV16170435, 2 Rare Alleles, n/total 19/37"}, "[11]": {"details": "IL6ST hCV16170435, Hosp. for Cardiovascular Disease"}, "[12]": {"details": "IL6ST hCV16170435, Total Cardiovascular Disease Events"}, "[13]": {"details": "IL9 hCV3275199, All Patients, 0 Rare Alleles, Prava arm"}}, "data": [{"smiles": "CC[C@H](C)C(=O)O[C@H]1C[C@H](O)C=C2C=C[C@H](C)[C@H](CC[C@@H](O)C[C@@H](O)CC(=O)O)[C@H]21", "note": "[pravastatin]", "values": [{"measurement": "Prava vs. Placebo Odds Ratio, 1 Rare Alleles", "setting": "[1]", "result": 0.60}, {"measurement": "Prava vs. Placebo Odds Ratio, 2 Rare Alleles", "setting": "[1]", "result": 0.29}, {"measurement": "Non-fatal MI (def & prob), n/total (%)", "setting": "IL1RN hCV8737990, 0 Rare Alleles, n/total 68/809", "result": "(8.4%)"}, {"measurement": "Fatal/Non-fatal MI (def & prob), n/total (%)", "setting": "IL1RN hCV8737990, 0 Rare Alleles, n/total 76/809", "result": "(9.4%)"}, {"measurement": "Fatal CHD/Definite Non-fatal MI, n/total (%)", "setting": "IL1RN hCV8737990, 0 Rare Alleles, n/total 80/809", "result": "(9.9%)"}, {"measurement": "Total Coronary Heart Disease Events, n/total (%)", "setting": "IL1RN hCV8737990, 0 Rare Alleles, n/total 228/809", "result": "(28.2%)"}, {"measurement": "Fatal/Non-fatal Atherosclerotic CV Disease, n/total (%)", "setting": "IL1RN hCV8737990, 0 Rare Alleles, n/total 260/809", "result": "(32.1%)"}, {"measurement": "Hosp. for Cardiovascular Disease, n/total (%)", "setting": "IL1RN hCV8737990, 0 Rare Alleles, n/total 315/809", "result": "(38.9%)"}, {"measurement": "Total Cardiovascular Disease Events, n/total (%)", "setting": "IL1RN hCV8737990, 0 Rare Alleles, n/total 325/809", "result": "(40.2%)"}, {"measurement": "Fatal CHD/Definite Non-fatal MI, n/total (%)", "setting": "IL1RN hCV8737990, 1 Rare Allele, n/total 44/585", "result": "(7.5%)"}, {"measurement": "Non-fatal MI (def & prob), n/total (%)", "setting": "IL1RN hCV8737990, 1 Rare Allele, n/total 45/585", "result": "(7.7%)"}, {"measurement": "Fatal/Non-fatal MI (def & prob), n/total (%)", "setting": "IL1RN hCV8737990, 1 Rare Allele, n/total 49/585", "result": "(8.4%)"}, {"measurement": "Total Coronary Heart Disease Events, n/total (%)", "setting": "IL1RN hCV8737990, 1 Rare Allele, n/total 167/585", "result": "(28.5%)"}, {"measurement": "Fatal/Non-fatal Atherosclerotic CV Disease, n/total (%)", "setting": "IL1RN hCV8737990, 1 Rare Allele, n/total 193/585", "result": "(33.0%)"}, {"measurement": "Hosp. for Cardiovascular Disease, n/total (%)", "setting": "IL1RN hCV8737990, 1 Rare Allele, n/total 232/585", "result": "(39.7%)"}, {"measurement": "Total Cardiovascular Disease Events, n/total (%)", "setting": "IL1RN hCV8737990, 1 Rare Allele, n/total 239/585", "result": "(40.9%)"}, {"measurement": "Fatal CHD/Definite Non-fatal MI, n/total (%)", "setting": "IL1RN hCV8737990, 2 Rare Alleles, n/total 15/121", "result": "(12.4%)"}, {"measurement": "Fatal/Non-fatal MI (def & prob), n/total (%)", "setting": "[2]", "result": "(16.5%)"}, {"measurement": "Non-fatal MI (def & prob), n/total (%)", "setting": "[2]", "result": "(16.5%)"}, {"measurement": "Total Coronary Heart Disease Events, n/total (%)", "setting": "IL1RN hCV8737990, 2 Rare Alleles, n/total 45/121", "result": "(37.2%)"}, {"measurement": "Fatal/Non-fatal Atherosclerotic CV Disease, n/total (%)", "setting": "IL1RN hCV8737990, 2 Rare Alleles, n/total 51/121", "result": "(42.1%)"}, {"measurement": "Hosp. for Cardiovascular Disease, n/total (%)", "setting": "IL1RN hCV8737990, 2 Rare Alleles, n/total 60/121", "result": "(49.6%)"}, {"measurement": "Total Cardiovascular Disease Events, n/total (%)", "setting": "IL1RN hCV8737990, 2 Rare Alleles, n/total 61/121", "result": "(50.4%)"}, {"measurement": "Prava vs. Placebo Odds Ratio, 0 Rare Alleles", "setting": "[3]", "result": 0.75}, {"measurement": "Prava vs. Placebo Odds Ratio, 1 Rare Alleles", "setting": "[3]", "result": 0.52}, {"measurement": "Prava vs. Placebo Odds Ratio, 2 Rare Alleles", "setting": "[3]", "result": 1.89}, {"measurement": "Prava vs. Placebo Odds Ratio, 0 Rare Alleles", "setting": "[4]", "result": 0.75}, {"measurement": "Prava vs. Placebo Odds Ratio, 1 Rare Alleles", "setting": "[4]", "result": 0.66}, {"measurement": "Prava vs. Placebo Odds Ratio, 2 Rare Alleles", "setting": "[4]", "result": 1.67}, {"measurement": "Prava vs. Placebo Odds Ratio, 0 Rare Alleles", "setting": "[5]", "result": 0.66}, {"measurement": "Prava vs. Placebo Odds Ratio, 1 Rare Alleles", "setting": "[5]", "result": 0.51}, {"measurement": "Prava vs. Placebo Odds Ratio, 2 Rare Alleles", "setting": "[5]", "result": 1.70}, {"measurement": "Prava vs. Placebo Odds Ratio, 0 Rare Alleles", "setting": "[6]", "result": 0.77}, {"measurement": "Prava vs. Placebo Odds Ratio, 1 Rare Alleles", "setting": "[6]", "result": 0.64}, {"measurement": "Prava vs. Placebo Odds Ratio, 2 Rare Alleles", "setting": "[6]", "result": 1.37}, {"measurement": "Prava vs. Placebo Odds Ratio, 0 Rare Alleles", "setting": "[7]", "result": 0.68}, {"measurement": "Prava vs. Placebo Odds Ratio, 1 Rare Alleles", "setting": "[7]", "result": 0.52}, {"measurement": "Prava vs. Placebo Odds Ratio, 2 Rare Alleles", "setting": "[7]", "result": 1.70}, {"measurement": "Prava vs. Placebo Odds Ratio, 0 Rare Alleles", "setting": "[8]", "result": 0.75}, {"measurement": "Prava vs. Placebo Odds Ratio, 1 Rare Alleles", "setting": "[8]", "result": 0.65}, {"measurement": "Prava vs. Placebo Odds Ratio, 2 Rare Alleles", "setting": "[8]", "result": 1.37}, {"measurement": "Prava vs. Placebo Odds Ratio, 0 Rare Alleles", "setting": "[9]", "result": 0.74}, {"measurement": "Prava vs. Placebo Odds Ratio, 1 Rare Alleles", "setting": "[9]", "result": 0.67}, {"measurement": "Prava vs. Placebo Odds Ratio, 2 Rare Alleles", "setting": "[9]", "result": 1.84}, {"measurement": "Hosp. for Cardiovascular Disease, n/total (%)", "setting": "IL6ST hCV16170435, 0 Rare Alleles, n/total 450/1131", "result": "(39.8%)"}, {"measurement": "Total Cardiovascular Disease Events, n/total (%)", "setting": "IL6ST hCV16170435, 0 Rare Alleles, n/total 465/1131", "result": "(41.1%)"}, {"measurement": "Hosp. for Cardiovascular Disease, n/total (%)", "setting": "IL6ST hCV16170435, 1 Rare Allele, n/total 139/340", "result": "(40.9%)"}, {"measurement": "Total Cardiovascular Disease Events, n/total (%)", "setting": "IL6ST hCV16170435, 1 Rare Allele, n/total 142/340", "result": "(41.8%)"}, {"measurement": "Hosp. for Cardiovascular Disease, n/total (%)", "setting": "[10]", "result": "(51.4%)"}, {"measurement": "Total Cardiovascular Disease Events, n/total (%)", "setting": "[10]", "result": "(51.4%)"}, {"measurement": "Prava vs. Placebo Odds Ratio, 0 Rare Alleles", "setting": "[11]", "result": 0.75}, {"measurement": "Prava vs. Placebo Odds Ratio, 1 Rare Alleles", "setting": "[11]", "result": 0.72}, {"measurement": "Prava vs. Placebo Odds Ratio, 2 Rare Alleles", "setting": "[11]", "result": 2.49}, {"measurement": "Prava vs. Placebo Odds Ratio, 0 Rare Alleles", "setting": "[12]", "result": 0.75}, {"measurement": "Prava vs. Placebo Odds Ratio, 1 Rare Alleles", "setting": "[12]", "result": 0.69}, {"measurement": "Prava vs. Placebo Odds Ratio, 2 Rare Alleles", "setting": "[12]", "result": 2.49}, {"measurement": "Fatal/Nonfatal MI (def & prob), n/total (%)", "setting": "[13]", "result": "(10.8%)"}, {"measurement": "MI (Fatal/Nonfatal), n/total (%)", "setting": "[13]", "result": "(11.1%)"}]}]}
